Test [1] concerns iron-regulatory proteins (IRPs). Briefly: iron regulatory protein gel-retardation assay (IRP-RNA binding activity). The class given is cell-based, human. To be noted: SK-N-MC cells, 20 hr incubation; chelators 25 μM, DFO 100 μM, FAC 100 μg/ml. As for the experimental part:
FIG. 5. The effect of the chelators on the RNA-binding activity of the iron-regulatory proteins (IRPs) in the SK-N-MC neuroepithelioma cells. Cells were incubated for 20 h with either medium alone (control), ferric ammonium citrate (FAC: 100 μg/ml), DFO (100 μM), or the other chelators (25 μM).
A gel-retardation assay was used to measure the interaction between the IRPs and IRE using established techniques (Leibold et al., […]. Proc. Natl. Acad. Sci. USA 85 2171–5; Müllner et al., 1989 Cell 58 373–82). Briefly, after incubation with medium alone (control) or medium containing ferric ammonium citrate (100 μg/ml: Aldrich Ltd., Sydney, Australia) or the chelator. […] cells were washed with ice-cold phosphate-buffered saline (PBS) and lysed at 4° C. in 40 μl of ice-cold Munro extraction buffer (10 mM HEPES, pH 7.6, 3 mM MgCl2, 40 mM KCl, 5% glycerol, 1 MM dithiothreitol and 0.5% Nonidet P-40). After lysis, the samples were then centrifuged at 10,000 rpm for 3 mins at 4° C. to remove nuclei and the supernatant stored at −70° C. Frozen cytoplasmic extracts were thawed on ice and then centrifuged at 15,000 rpm for 10 min at 4° C. The protein concentration of the soluble supernatant was determined using the BioRad protein assay (BioRad Ltd., USA). Samples of cytoplasmic extracts were diluted to a protein concentration of 100 μg/ml in Munro buffer without Nonidet P-40 and 1 μg aliquots were analyzed for IRP by incubation with 0.1 ng (approximately 1×10^5 cpm) of ^32P-labelled pGL66 RNA transcript (Leibold et al., 1988). The riboprobe was transcribed in vitro from linearized plasmid templates using SP6 RNA polymerase in the presence of α-^32P UTP (Dupont, NEN). This latter reaction was performed using the Promega Riboprobe In Vitro Transcription Kit (Promega, Madison, Wis., USA). The probe was subsequently purified on a 6% urea/PAGE gel. To form RNA-protein complexes, cytoplasmic extracts containing 1 μg of protein were incubated for 10 mins at room temperature with the ^32P-labelled riboprobe. Unprotected probe was degraded by incubation with 1 U of RNAse T1 for 10 mins at room temperature. Heparin (Sigma) at a final concentration of 5 mg/ml was then added and incubated with the extract for another 10 min at room temperature to exclude non-specific binding. RNA-protein complexes were analyzed in 6% non-denaturing polyacrylamide gels at 4° C. as described by Konarska et al., 1986, Cell 46 845–55. Gels were dried, covered in plastic film and exposed to Kodak XAR films at −70° C. with an intensifying screen.
An important effect of intracellular Fe depletion using DFO is the activation of RNA-binding activity of the iron regulatory proteins (IRP's) (Hentze et al., 1996, Proc. Natl. Acad. Sci. USA 93 8175–82). […] The present inventors examined the effect of a 20 hr incubation with 311, PIH and the PCIH analogues (25 μM) on IRP-RNA binding activity in SK-N-MC cells. In all experiments, DFO (100 μM) was used as a positive control to deplete cells of Fe and increase IRP-RNA binding activity. In contrast, ferric ammonium citrate (FAC: 100 μg/ml) was used to donate Fe to cells and reduce IRP-RNA binding.

The subject of test [2] is SK-N-MC neuroepithelioma cells. Briefly: 59Fe release from prelabelled cells (iron efflux). The class given is cell-based, human. To be noted: chelators 0.5–50 μM, 'most effective' refers to concentrations up to 10 μM.
In test [3] the test system is SK-N-MC neuroepithelioma cells. Briefly: internalized 59Fe uptake from 59Fe-transferrin. In kind it is cell-based, human. To be noted: chelators 0.5–50 μM, 3 hr, 'most effective' refers to concentrations up to 10 μM.
The subject of test [4] is 59Fe-loaded reticulocytes. Briefly: mobilisation of 59Fe from 59Fe-loaded reticulocytes (mitochondrial Fe overload model). In kind it is cell-based, rabbit. Here is the method:
FIG. 7. The effect of reincubation time with the Fe chelators on ^59Fe mobilization from ^59Fe-loaded reticulocytes. The cells were labelled with ^59Fe-transferrin (3.75 μM) in the presence of the heme synthesis inhibitor, succinylacetone (1 mM), and incubated with the cells for 1 h at 37° C. The ^59Fe-labelled reticulocytes were then incubated with the chelators (200 μM) for 15–240 min at 37° C. The results are Mean±SD (3 determinations) in a typical experiment of three performed.
FIG. 9. The effect of chelator concentration on ^59Fe mobilization from ^59Fe-loaded reticulocytes. The cells were labelled with ^59Fe-transferrin (3.75 μM) in the presence of the heme synthesis inhibitor, succinylacetone (1 mM), and incubated with the cells for 1 h at 37° C. The ^59Fe-labelled reticulocytes were then incubated with the chelators (10–200 μM) for 15–240 min at 37° C. The results are Mean±SD (3 determinations) in a typical experiment of three performed.
Reticulocytosis was induced by standard procedures (Richardson, D. R., Ponka, P and Vyoral, D (1996) Blood 87, 3477–3488) in New Zealand white rabbits by repeated phlebotomy by cardiac puncture using a protocol approved by the McGill University Animal Care Committee. Reticulocytes were identified based on staining with new methylene blue, and cell counts were determined using an improved Neubauer counting chamber.
Reticulocytes were obtained from chronically bled rabbits as described above and were incubated with 1 mM succinylacetone (SA: Sigma) to inhibit heme synthesis. After a 15 min preincubation in the presence of SA, ^59Fe-Tf ([…]) was added and incubated with the cells for 1 H at 37° C. with shaking. After this incubation the reticulocytes were washed three times with ice-cold PBS to remove non-specifically bound ^59Fe-Tf. The washed ^59Fe-labelled reticulocytes (30–35 μL) were incubated in buffered salt solution (250 μL final volume) with the apochelators. The SA was present in all incubations with the chelators to prevent the utilization of non-heme ^59Fe for heme synthesis. After the incubation, ^59Fe was measured both in washed reticulocytes and in the medium, and the percentage of ^59Fe mobilized from the reticulocytes was then calculated.

The subject of another test is neuroblastoma (NB). Particulars: cited from earlier work.

Bounds are passed on as bounds.

Regarding `O=C(NN=Cc1ccccn1)c1cccs1` [PCTH, 2-pyridylcarboxaldehyde 2-thiophenecarboxyl hydrazone], the “IRP-RNA binding activity compared to the control (FIG. 5)” value in test [1] is recorded as “marked increase”. Also, the “efficacy at mobilizing 59Fe as a function of chelator concentration (FIG. 3A)” value in test [2] is “most effective chelators”. The “efficacy at preventing 59Fe uptake from 59Fe-Tf as a function of chelator concentration (FIG. 3B)” value in test [3] is “most effective chelators”.
`O=C(NN=Cc1ccco1)c1ccncc1` [FIH, 2furoylcarboxaldehyde isonicotinoyl hydrazone]: the “IRP-RNA binding activity compared to the control (FIG. 5)” value in test [1] is listed as “decreased”. In addition, the “cellular 59Fe released from 59Fe-loaded reticulocytes, 1 h reincubation (FIG. 9)” value in test [4] (chelator concentration 200 μM (range 10–200 μM), reincubated 1 h at 37° C., 3 determinations) was “very low activity”. Besides, the “cellular 59Fe mobilized from 59Fe-loaded reticulocytes after 240 min” value in test [4] (chelators 200 μM, 240 min of incubation, FIG. 7) worked out at 4%.
Take `O=C(NN=Cc1ccccn1)c1ccccc1` [PCBH, 2-pyridylcarboxaldehyde benzoyl hydrazone]: the “IRP-RNA binding activity compared to the control (FIG. 5)” value in test [1] is given as “marked increase”.
On the same count and under the same terms, the same measure for `O=C(NN=Cc1c(O)ccc2ccccc12)c1ccncc1` [Chelator 311, 2-hydroxy-1-naphthylaldehyde isonicotinoyl hydrazone, reference compound]: “marked increase”.
Turning to `CC(=O)N(O)CCCCCNC(=O)CCC(=O)N(O)CCCCCNC(=O)CCC(=O)N(O)CCCCCN` [DFO, desferrioxamine, reference compound], the “IRP-RNA binding activity compared to the control (FIG. 5)” value in test [1] is “increase”. Further, in test [4] (high concentrations up to 5 mM, activity similar to control medium), the “effect on mobilizing 59Fe from 59Fe-loaded reticulocytes at high concentrations” value was “little effect”. The “decrease in bone infiltration of tumor cells” value in the test with neuroblastoma (NB) (7 of 9 patients with neuroblastoma, 8 hr intravenous infusion) is recorded as more than 50%. Also, in the test with neuroblastoma (NB) (in 1 patient with neuroblastoma), the “decrease in tumor size” value was 48%.

The values above are taken from patent US6989397B1, “Iron chelators and uses thereof” (University of Queensland, priority 1999, dated 2006).
